`Cc1cnc(Nc2nc(-c3ccccc3)nc3ccccc23)s1` [II-35, (5-Methyl-thiazol-2-yl)-(2-phenyl-quinazolin-4-yl)-amine]: the melting point was in the range of 215 to 216 °C.
With `c1ccc(-c2nc(Nc3ncc(C4CC4)s3)c3ccccc3n2)cc1` [II-36, (5-Cyclopropyl-thiazol-2-yl)-(2-phenyl-quinazolin-4-yl)-amine], the melting point fell in the range of 161 to 162 °C.
`c1ccc(-c2nc(Nc3nccs3)c3ccccc3n2)cc1` [II-34, (2-Phenyl-quinazolin-4-yl)-(thiazol-2-yl)-amine]: the melting point was 219 to 221 °C.

Broadly, the melting point is the temperature, or range, at which the solid turns liquid.
